Measurements taken from patent US20240189331A1, “NOVEL […] FILM FORMULATION” (INTELGENX CORP., priority 2021, published 2024).
Entries after “also recorded” stand apart in the source; their conditions may differ.

Legend:
[1] = In vitro permeability study in 6 station Franz diffusion cell apparatus using porcine buccal mucosa; conditions: for effect of acidifying agent in film formulation on permeation of psilocybin through pig mucosa membrane: psilocybin around its isoelectric point (pH=3.9)
[2] = administered orally; cited from earlier work
[3] = cited from earlier work

With `O=C(O)CC(O)(CC(=O)O)C(=O)O` [citric acid] as the molecule, how does the “effect of acidifying agent in film formulation on permeation of psilocybin through pig mucosa membrane” value [1] read?
Its value is “triggers permeation”.

Which “effect of acidifying agent in film formulation on permeation of psilocybin through pig mucosa membrane” value [1] does the source give for `O=P(O)(O)O` [phosphoric acid] here?
The value was “triggers permeation”.

Which “drug absorbed into the bloodstream” value [2] does the source give for `CN(C)CCc1c[nH]c2cccc(OP(=O)(O)O)c12` [psilocybin, [3-(2-Dimethylaminoethyl)-1H-indol-4-yl]dihydrogen phosphate] here?
Its value is “about 50%”.

And the “time of maximum plasma concentration” value [2]?
The value was “approximately 80 minutes”.

And the pka1 ([3]; first phosphate oxygen)?
Its pka1 is 1.3.

What about the pka2 ([3]; second phosphate oxygen) of the same molecule?
The pka2 was 6.5.

What about the pka3 ([3]; tertiary amine group) of the same molecule?
The pka3 was 10.4.

With “Benzalkonium chloride [Benzalkonium chloride (BKC)]” as the molecule, how does the “effect of penetration enhancer on psilocybin diffusion through porcine buccal mucosa” value ([1]; penetration enhancer in psilocybin film formulation, FIG. 4 and FIG. 5) read?
The value was “improved buccal permeation; also recorded: significate increase”.
